Publication PMC7955072 (Nature Communications, 2021)
“Also recorded” adds a separate entry of the source.

Key:
[1] = system: IleRS; details: cited from earlier work
[2] = target: ScIleRS P90A (Saccharomyces cerevisiae, UniProt P09436, P90A); type: binding
Method: (§1) Ligand binding usually stabilizes the protein during the thermal denaturation process, and tighter binding usually causes a larger positive shift in the protein melting temperature (Tm)[45]. […] The fluorescence intensity was recorded by a StepOnePlus Real-Time PCR instrument (Life Technologies), and the maximums of the first derivatives were determined to calculate Tm values. Each Tm value was an average of triple assays.

[3] = target: ScIleRS R454A (Saccharomyces cerevisiae, UniProt P09436, R454A); type: binding
Chain of ScIleRS R454A (P09436 whole entry R454A): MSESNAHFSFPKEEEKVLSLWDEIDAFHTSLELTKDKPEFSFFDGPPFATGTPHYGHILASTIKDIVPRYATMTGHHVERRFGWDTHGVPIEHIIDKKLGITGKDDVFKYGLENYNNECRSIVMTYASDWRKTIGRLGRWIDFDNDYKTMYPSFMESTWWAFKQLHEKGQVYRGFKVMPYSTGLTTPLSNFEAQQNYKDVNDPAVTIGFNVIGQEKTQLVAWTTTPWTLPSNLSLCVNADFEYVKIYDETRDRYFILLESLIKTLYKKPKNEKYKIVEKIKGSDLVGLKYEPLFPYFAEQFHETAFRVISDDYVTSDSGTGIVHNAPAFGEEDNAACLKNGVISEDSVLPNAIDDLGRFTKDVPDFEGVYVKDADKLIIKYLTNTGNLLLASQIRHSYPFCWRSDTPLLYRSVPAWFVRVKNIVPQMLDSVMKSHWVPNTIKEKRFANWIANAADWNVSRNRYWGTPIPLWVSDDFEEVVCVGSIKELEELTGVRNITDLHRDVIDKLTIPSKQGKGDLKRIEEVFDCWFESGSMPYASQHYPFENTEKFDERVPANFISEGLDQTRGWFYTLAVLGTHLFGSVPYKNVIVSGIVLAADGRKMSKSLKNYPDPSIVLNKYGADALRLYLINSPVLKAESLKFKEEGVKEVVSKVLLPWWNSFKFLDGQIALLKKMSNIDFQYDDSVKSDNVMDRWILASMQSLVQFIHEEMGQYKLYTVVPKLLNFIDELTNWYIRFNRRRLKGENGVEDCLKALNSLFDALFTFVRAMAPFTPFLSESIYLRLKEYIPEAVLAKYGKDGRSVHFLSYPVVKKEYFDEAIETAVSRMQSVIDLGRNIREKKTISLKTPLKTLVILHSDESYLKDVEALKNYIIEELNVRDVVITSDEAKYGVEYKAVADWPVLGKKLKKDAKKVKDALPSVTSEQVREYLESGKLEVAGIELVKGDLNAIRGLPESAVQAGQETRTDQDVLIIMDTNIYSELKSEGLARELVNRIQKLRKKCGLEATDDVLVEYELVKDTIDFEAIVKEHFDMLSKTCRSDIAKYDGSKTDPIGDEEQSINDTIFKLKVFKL
Method: as §1

[4] = target: ScIleRS F48Y (Saccharomyces cerevisiae, UniProt P09436, F48Y); type: binding
Chain of ScIleRS F48Y (P09436 whole entry F48Y): as the sequence (P09436 whole entry R454A) above, with F48Y, A454R counted along it
Method: as §1

[5] = target: ScIleRS W529A (Saccharomyces cerevisiae, UniProt P09436, W529A); type: binding
Chain of ScIleRS W529A (P09436 whole entry W529A): as the sequence (P09436 whole entry R454A) above, with A454R, W529A counted along it
Method: as §1

[6] = target: ScIleRS W402A (Saccharomyces cerevisiae, UniProt P09436, W402A); type: binding
Chain of ScIleRS W402A (P09436 whole entry W402A): as the sequence (P09436 whole entry R454A) above, with W402A, A454R counted along it
Method: as §1

[7] = target: ScIleRS R460A (Saccharomyces cerevisiae, UniProt P09436, R460A); type: binding
Chain of ScIleRS R460A (P09436 whole entry R460A): as the sequence (P09436 whole entry R454A) above, with A454R, R460A counted along it
Method: as §1

[8] = target: ScIleRS W449A (Saccharomyces cerevisiae, UniProt P09436, W449A); type: binding
Chain of ScIleRS W449A (P09436 whole entry W449A): as the sequence (P09436 whole entry R454A) above, with W449A, A454R counted along it
Method: as §1

[9] = target: ScIleRS F191A (Saccharomyces cerevisiae, UniProt P09436, F191A); type: binding
Chain of ScIleRS F191A (P09436 whole entry F191A): as the sequence (P09436 whole entry R454A) above, with F191A, A454R counted along it
Method: as §1

[10] = target: ScIleRS D527A (Saccharomyces cerevisiae, UniProt P09436, D527A); type: binding
Chain of ScIleRS D527A (P09436 whole entry D527A): as the sequence (P09436 whole entry R454A) above, with A454R, D527A counted along it
Method: as §1

[11] = target: ScIleRS F48A (Saccharomyces cerevisiae, UniProt P09436, F48A); type: binding
Chain of ScIleRS F48A (P09436 whole entry F48A): as the sequence (P09436 whole entry R454A) above, with F48A, A454R counted along it
Method: as §1

[12] = target: ScIleRS T572A (Saccharomyces cerevisiae, UniProt P09436, T572A); type: binding
Chain of ScIleRS T572A (P09436 whole entry T572A): as the sequence (P09436 whole entry R454A) above, with A454R, T572A counted along it
Method: as §1

[13] = target: ScIleRS W456A (Saccharomyces cerevisiae, UniProt P09436, W456A); type: binding
Chain of ScIleRS W456A (P09436 whole entry W456A): as the sequence (P09436 whole entry R454A) above, with A454R, W456A counted along it
Method: as §1

[14] = target: ScIleRS del_KMSKS (Saccharomyces cerevisiae, UniProt P09436, DEL601-605/K608S/L607G); type: binding
Chain of ScIleRS del_KMSKS (P09436 other isoform, or with tags, fused parts or gaps DEL601-605/L607G/K608S): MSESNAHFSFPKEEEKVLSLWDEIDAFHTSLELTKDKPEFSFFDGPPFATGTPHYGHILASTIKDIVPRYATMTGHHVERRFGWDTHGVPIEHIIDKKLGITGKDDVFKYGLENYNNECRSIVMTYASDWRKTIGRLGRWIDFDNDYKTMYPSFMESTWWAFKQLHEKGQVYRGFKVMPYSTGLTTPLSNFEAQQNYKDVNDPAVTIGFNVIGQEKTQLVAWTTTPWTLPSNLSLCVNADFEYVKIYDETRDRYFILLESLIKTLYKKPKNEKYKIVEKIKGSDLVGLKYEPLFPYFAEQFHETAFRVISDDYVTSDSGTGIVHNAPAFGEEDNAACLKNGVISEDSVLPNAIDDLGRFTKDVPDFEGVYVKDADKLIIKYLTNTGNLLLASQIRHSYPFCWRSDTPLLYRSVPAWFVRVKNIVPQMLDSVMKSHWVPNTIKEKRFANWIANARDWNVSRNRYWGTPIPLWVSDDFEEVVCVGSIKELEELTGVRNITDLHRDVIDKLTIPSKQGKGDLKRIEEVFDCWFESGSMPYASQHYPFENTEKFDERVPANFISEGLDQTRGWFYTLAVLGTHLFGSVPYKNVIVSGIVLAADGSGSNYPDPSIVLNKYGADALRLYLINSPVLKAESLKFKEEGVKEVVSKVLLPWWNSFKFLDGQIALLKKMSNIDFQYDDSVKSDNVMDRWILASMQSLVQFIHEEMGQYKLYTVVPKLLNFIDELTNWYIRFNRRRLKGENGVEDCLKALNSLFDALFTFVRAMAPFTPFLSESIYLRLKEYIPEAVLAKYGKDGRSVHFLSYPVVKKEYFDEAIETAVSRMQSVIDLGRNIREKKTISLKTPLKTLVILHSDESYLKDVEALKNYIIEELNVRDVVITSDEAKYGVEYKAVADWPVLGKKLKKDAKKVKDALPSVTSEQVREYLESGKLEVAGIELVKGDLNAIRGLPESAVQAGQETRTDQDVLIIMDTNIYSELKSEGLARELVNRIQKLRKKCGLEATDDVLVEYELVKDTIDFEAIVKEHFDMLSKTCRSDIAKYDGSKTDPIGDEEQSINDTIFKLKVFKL
Method: as §1

[15] = target: ScIleRS R462A (Saccharomyces cerevisiae, UniProt P09436, R462A); type: binding
Chain of ScIleRS R462A (P09436 whole entry R462A): as the sequence (P09436 whole entry R454A) above, with A454R, R462A counted along it
Method: as §1

[16] = target: ScIleRS V89A (Saccharomyces cerevisiae, UniProt P09436, V89A); type: binding
Chain of ScIleRS V89A (P09436 whole entry V89A): as the sequence (P09436 whole entry R454A) above, with V89A, A454R counted along it
Method: as §1

[17] = target: ScIleRS Y571A (Saccharomyces cerevisiae, UniProt P09436, Y571A); type: binding
Chain of ScIleRS Y571A (P09436 whole entry Y571A): as the sequence (P09436 whole entry R454A) above, with A454R, Y571A counted along it
Method: as §1

[18] = target: C-terminal truncated ScIleRS (residues 1-984) (Saccharomyces cerevisiae, UniProt P09436); experiment: Fluorescence-based thermal shift assay (TSA), C-terminal truncated ScIleRS; type: binding; details: protein bound with copurified Ile-AMP
Chain of C-terminal truncated ScIleRS (residues 1-984) (P09436 1-984): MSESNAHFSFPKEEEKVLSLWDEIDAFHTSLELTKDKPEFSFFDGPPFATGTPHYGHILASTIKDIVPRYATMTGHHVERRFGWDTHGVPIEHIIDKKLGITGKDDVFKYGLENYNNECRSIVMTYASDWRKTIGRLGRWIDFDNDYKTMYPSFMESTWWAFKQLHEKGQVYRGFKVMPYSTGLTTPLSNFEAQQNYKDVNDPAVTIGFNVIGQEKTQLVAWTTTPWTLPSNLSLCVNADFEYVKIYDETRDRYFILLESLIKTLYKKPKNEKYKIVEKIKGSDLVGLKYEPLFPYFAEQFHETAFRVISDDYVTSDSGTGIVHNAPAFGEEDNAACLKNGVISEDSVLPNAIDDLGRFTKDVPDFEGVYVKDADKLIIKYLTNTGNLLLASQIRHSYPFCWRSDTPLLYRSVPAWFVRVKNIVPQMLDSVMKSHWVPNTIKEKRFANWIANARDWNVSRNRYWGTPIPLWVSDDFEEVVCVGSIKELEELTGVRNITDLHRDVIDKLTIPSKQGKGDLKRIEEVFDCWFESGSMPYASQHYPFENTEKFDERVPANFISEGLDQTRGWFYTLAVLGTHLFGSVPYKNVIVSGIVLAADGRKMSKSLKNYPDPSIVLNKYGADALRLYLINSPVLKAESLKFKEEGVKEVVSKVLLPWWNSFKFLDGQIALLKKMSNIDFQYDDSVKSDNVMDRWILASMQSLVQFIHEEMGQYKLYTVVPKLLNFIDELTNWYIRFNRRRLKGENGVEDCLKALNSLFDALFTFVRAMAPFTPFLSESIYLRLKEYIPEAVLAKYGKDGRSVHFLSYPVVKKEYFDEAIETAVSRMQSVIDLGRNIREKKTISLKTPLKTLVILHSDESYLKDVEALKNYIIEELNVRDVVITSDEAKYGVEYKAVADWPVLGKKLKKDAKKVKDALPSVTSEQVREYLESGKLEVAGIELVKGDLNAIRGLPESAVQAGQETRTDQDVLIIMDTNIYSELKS
Method: The binding of RM-A to IleRS and the impact of intermediate analogue (Ile-AMS, MedChemExpress) or substrates on binding were evaluated by the fluorescence-based thermal shift assay (TSA). Ligand binding usually stabilizes the protein during the thermal denaturation process, and tighter binding usually causes a larger positive shift in the protein melting temperature (Tm)[45]. […]. The mixtures were incubated at 25 °C for 10 min and then heated from 25 °C to 95 °C at a rate of 1 °C/min. The fluorescence intensity was recorded by a StepOnePlus Real-Time PCR instrument (Life Technologies), and the maximums of the first derivatives were determined to calculate Tm values. Each Tm value was an average of triple assays.

[19] = target: full-length ScIleRS (Saccharomyces cerevisiae, UniProt P09436); experiment: Fluorescence-based thermal shift assay (TSA), full-length ScIleRS wild-type; type: binding; details: for △Tm: Wild-type, difference between Tm with and without ligands; for increase of Tm value of ScIleRS: single ligand (50 μM RM-A, 2 mM L-isoleucine, 2 mM ATP or 50 μM Ile-AMS), Tm without ligand approximately 54 °C
Chain of full-length ScIleRS (P09436 whole entry): as the sequence (P09436 whole entry R454A) above, with A454R counted along it
Method: as §1

Chain of ScIleRS P90A (P09436 whole entry P90A): as the sequence (P09436 whole entry R454A) above, with P90A, A454R counted along it

| Molecule | △Tm [2] [°C] | △Tm [3] [°C] | △Tm [4] [°C] | △Tm [5] [°C] | △Tm [6] [°C] | △Tm [7] [°C] | △Tm [8] [°C] | △Tm [9] [°C] | △Tm [10] [°C] | △Tm [11] [°C] | △Tm [12] [°C] | △Tm [13] [°C] | △Tm [14] [°C] | △Tm [15] [°C] | △Tm [16] [°C] | △Tm [17] [°C] | Tm value of C-terminal truncated ScIleRS [18] | △Tm [19] [°C] | increase of Tm value of ScIleRS [19] | also measured |
| --- | --- | --- | --- | --- | --- | --- | --- | --- | --- | --- | --- | --- | --- | --- | --- | --- | --- | --- | --- | --- |
| reveromycin T [RM-T] |  |  |  |  |  |  |  |  |  |  |  |  |  |  |  |  |  |  |  | inhibitory activity against IleRS compared with RM-A [1]: stronger inhibitory activity; also recorded: even higher inhibitory activity |
| CC[C@H](C)[C@H](N)C(=O)O [L-isoleucine] | 6.4 | 6.6 | 4.4 | 1.9 | 6.9 | 3.1 | 7.8 | 8.3 | 5.2 | 0.2 | 4.8 | 0.7 | 8.5 | 4 | 4.7 | 4 | not improved | 7.9 | ~8 °C |  |
| CC[C@H](C)[C@H](N)C(=O)NS(=O)(=O)OC[C@H]1O[C@@H](n2cnc3c(N)ncnc32)[C@H](O)[C@@H]1O [Ile-AMS] | 22.1 | 21.6 | 21.6 | 18.4 | 24.2 | 25.7 | 24.9 | 26.5 | 24.2 | 12.5 | 22.7 | 18.8 | 20.2 | 26 | 24.7 | 24.6 |  | 23.4 | ~23 °C |  |
| CC(/C=C/[C@H](O)[C@@H](C)/C=C/C(=O)O)=C\C[C@H]1O[C@@]2(CC[C@H](C)[C@H](/C=C/C(C)=C/C(=O)O)O2)CC[C@@H]1C [SF-A, Spirofungin A] |  |  |  |  |  |  |  |  |  |  |  |  |  |  |  |  |  |  |  | inhibition of IleRS [1]: only weakly inhibit |
| Nc1ncnc2c1ncn2[C@@H]1O[C@H](COP(=O)(O)OP(=O)(O)OP(=O)(O)O)[C@@H](O)[C@H]1O [ATP] |  |  |  |  |  |  |  |  |  |  |  |  |  |  |  |  | not improved |  | approximately 4 °C |  |
